Assay results from US6965021B2, “Feedback-resistant pyruvate carboxylase gene from corynebacterium” (Archer-Daniels-Midland Company, priority 2000, dated 2005).
Like-named read-outs stand apart in the source and are kept apart here.

Legend:
[1] = target: Corynebacterium glutamicum NRRL B-11474 (BF100) pyruvate carboxylase, feedback-resistant variant (M1V, E153D, A182S, A206S, H227R, A455G, D1120E), SEQ ID NO:2 (Corynebacterium glutamicum, UniProt H7C7K2, A182S/A206S/A455G/D1120E/E153D/H227R/M1V)
Description: (§1) Pyruvate carboxylate and phosphoenol pyruvate carboxylate assays were performed with permeabilized cells prepared by the following method. Log phase cells were harvested by centrifugation for 10 min at 5000×g at 4° C. and washed with 20 ml of the ice-cold washing buffer (50 mM Tris/HCl [pH 6.3] containing 50 mM NaCl). The cell pellet was resuspended in an ice-cold Hepes buffer (100 mM Hepes [pH 7.5] containing 20% Glycerol) to reach a final concentration of 25 g dry cell weight/liter. Resuspended cells were permeabilized by adding 30 μl of a 10% Hexadecyltrimethyl-ammonium bromide (CTAB) (w/v) solution to 1 ml of cells to give a final concentration of 0.3% (CTAB)(v/v).
The reaction was started at 30° C. with the addition of 10 μl of the permeabilized cell suspension, and the formation of DTNB-thiophenolate was followed over time at 412 nm. Relevant standards and controls were carried out in the same manner.
To account for the intrinsic loss of OAA during the experiment, a continuous assay was carried out by coupling the two-reaction assay to a one-reaction assay in presence of an excess of citrate synthase. The amount of permeabilized cells added in the assay was optimized to obtain a detectable activity, with the lowest possible background absorbency due to the presence of cells.
Pyruvate carboxylase activity was determined as a function of various concentrations of its substrates: pyruvate, bicarbonate and ATP (FIG. 3). Based on the data generated, the affinity constants of pyruvate carboxylase for its substrates were determined (Table 2).
To determine the effect of aspartate on the activity of pyruvate carboxylase, aspartate was added at different concentrations in the spectrophotometer cuvette and enzyme activities were measured. As a comparison, the same experiment was carried out with PEPC in ATCC 21253 (FIG. 5).
Pyruvate carboxylase activity was measured in the presence of different concentrations of acetyl-CoA (FIG. 6). […] The effect of acetyl-CoA on citrate synthase itself was studied also.

[2] = target: T1, Corynebacterium glutamicum ATCC 21253 phosphoenol pyruvate carboxylase (PEPC) (Corynebacterium glutamicum, UniProt P12880); test: Phosphoenol pyruvate carboxylase assay (permeabilized cells), ATCC 21253; assay type: biochemical; details: no concentration stated
T1 sequence (P12880 1-919): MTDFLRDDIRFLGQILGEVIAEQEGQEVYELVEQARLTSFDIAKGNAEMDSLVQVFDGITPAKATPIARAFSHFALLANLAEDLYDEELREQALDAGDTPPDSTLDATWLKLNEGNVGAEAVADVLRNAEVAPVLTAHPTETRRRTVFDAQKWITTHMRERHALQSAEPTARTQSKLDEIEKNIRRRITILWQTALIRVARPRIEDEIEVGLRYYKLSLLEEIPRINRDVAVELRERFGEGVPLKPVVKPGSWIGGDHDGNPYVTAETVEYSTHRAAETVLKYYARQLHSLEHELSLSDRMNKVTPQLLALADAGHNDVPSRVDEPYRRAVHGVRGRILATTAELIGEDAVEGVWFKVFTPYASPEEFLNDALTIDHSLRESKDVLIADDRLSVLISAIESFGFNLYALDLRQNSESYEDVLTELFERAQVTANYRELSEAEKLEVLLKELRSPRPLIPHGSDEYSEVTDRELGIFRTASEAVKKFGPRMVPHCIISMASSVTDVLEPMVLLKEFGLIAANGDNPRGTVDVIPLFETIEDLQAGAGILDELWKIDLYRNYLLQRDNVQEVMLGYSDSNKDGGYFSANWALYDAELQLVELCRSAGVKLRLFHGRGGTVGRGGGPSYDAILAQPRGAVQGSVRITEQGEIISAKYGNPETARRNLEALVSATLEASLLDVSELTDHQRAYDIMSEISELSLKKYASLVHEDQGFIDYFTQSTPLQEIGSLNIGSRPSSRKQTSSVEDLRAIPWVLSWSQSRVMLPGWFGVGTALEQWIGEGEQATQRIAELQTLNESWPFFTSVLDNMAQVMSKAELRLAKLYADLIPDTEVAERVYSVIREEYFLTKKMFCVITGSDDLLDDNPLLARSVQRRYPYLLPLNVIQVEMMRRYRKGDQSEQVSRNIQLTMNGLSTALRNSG
Description: as §1
For determination of phosphoenol pyruvate carboxylase activity, the assay mixture contained 10 mM phosphoenol pyruvate, 14 mM KHCO3, 4 mM MgCl2, 50 μmole acetyl-CoA, 0.3 mg bovine serum albumin, 0.055 U citrate synthase and 50 mM sodium phosphate buffer ([pH 7.5] containing 0.1 mg 5,5′-Dithio-bis(2-nitrobenzoic acid) (DTNB)) in a final volume of 1 ml. The reaction was carried out in the same conditions described for the pyruvate carboxylase assay.
Aspartate inhibits phosphoenol pyruvate carboxylase (PEPC) activity. To determine the effect of aspartate on the activity of pyruvate carboxylase, aspartate was added at different concentrations in the spectrophotometer cuvette and enzyme activities were measured. […]

For `N[C@@H](CC(=O)O)C(=O)O` [aspartate, aspartic acid], the “effect of aspartate on pyruvate carboxylase activity” value ([1]; 0-30 mM aspartate) was “activated”, the “effect of aspartate on pyruvate carboxylase activity” value ([1]; 30-100 mM aspartate) was “inhibited” and the “inhibition of PEPC by aspartate” value [2] was “strongly inhibited”.
